This note sets out measurements from PMC8843131, “Inhibition studies of bacterial α-carbonic anhydrases with phenols” (Journal of Enzyme Inhibition and Medicinal Chemistry, 2022).

One experiment deals with T1, NgCAα (Neisseria gonorrhoeae, UniProt Q50940).
T1 construct: gene cah; recombinant, obtained in-house as described earlier
T1 sequence (Q50940 27-252): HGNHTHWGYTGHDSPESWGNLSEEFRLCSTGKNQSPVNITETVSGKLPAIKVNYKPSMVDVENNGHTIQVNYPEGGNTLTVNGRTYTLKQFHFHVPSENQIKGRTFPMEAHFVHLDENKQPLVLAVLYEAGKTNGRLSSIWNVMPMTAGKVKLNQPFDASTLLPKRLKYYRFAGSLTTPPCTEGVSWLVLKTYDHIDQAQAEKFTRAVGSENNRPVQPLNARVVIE
The experiment is described as follows: stopped-flow CO2 hydrase assay. The format is biochemical.

The next experiment deals with T2, VchCAα (Vibrio cholerae, UniProt Q9KMP6).
T2 construct: gene VC_A0274
T2 sequence (Q9KMP6 21-239 limits assumed): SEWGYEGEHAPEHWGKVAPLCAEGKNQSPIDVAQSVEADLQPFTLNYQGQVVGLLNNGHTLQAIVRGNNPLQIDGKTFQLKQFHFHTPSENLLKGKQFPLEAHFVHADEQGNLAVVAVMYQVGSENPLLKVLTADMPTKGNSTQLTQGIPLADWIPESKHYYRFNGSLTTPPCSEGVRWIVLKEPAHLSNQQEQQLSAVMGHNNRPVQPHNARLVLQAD
The experiment in a line: stopped-flow CO2 hydrase assay. The format is biochemical. The settings on record: read-out: KI (μM)^a / VchCAα; CO2 substrate 1.7-17 mM, 10 mM HEPES pH 7.4, 10 mM NaClO4, 15 min preincubation.

Read-outs that look alike come from different tables or passages of the source.

On to `Oc1ccccc1` [compound 1, phenol], for which the results for the Ki on NgCAα and on VchCAα were 0.9 µM and 0.8 µM, respectively.
On the same counts, the results for `Oc1ccccc1O` [compound 2, 2] are 5.3 µM and 20.3 µM.
The matching figures for `Oc1cccc(O)c1` [compound 3, 3]: 2.2 µM and 8.6 µM.
For `Oc1ccc(O)cc1` [compound 4, 4], the Ki is 4.7 µM on NgCAα and 8.4 µM at VchCAα.
On the same counts, the results for `Oc1ccc(O)c(O)c1` [compound 5, 5] are 3.9 µM and 9.4 µM.
The matching figures for `Nc1cccc(O)c1` [compound 6, 3-aminophenol]: 1.7 µM and 3.9 µM.
The matching figures for `Nc1ccc(O)cc1` [compound 7, 7]: 6 µM and 10.6 µM.
Take `CC(=O)Nc1ccc(O)cc1` [compound 8, paracetamol]: the results for the Ki at NgCAα and on VchCAα were 1.5 µM and 7 µM, respectively.
Consider `N#Cc1ccc(O)cc1` [compound 9, 4-cyanophenol], for which the Ki at NgCAα (CO2 substrate 1.7-17 mM, 10 mM HEPES pH 7.4, 10 mM NaClO4, 15 min preincubation) is 24.2 µM; on VchCAα it was 17.2 µM.
Take `O=C(O)c1ccccc1O` [compound 10, salicylic acid]: the Ki on NgCAα was found to be 43.8 µM; at VchCAα, 39.1 µM.
On the same counts, the results for `O=C(O)c1ccc(O)cc1` [compound 11, 4-hydroxy-benzoic acid] are 8.7 µM and 3.5 µM.
Consider `OCc1ccc(O)cc1` [compound 12, 4-hydroxy-benzylalcohol], for which the Ki at NgCAα turned out to be 0.6 µM; on VchCAα, 1.2 µM.
The matching figures for `Nc1cc(O)ccc1Cl` [compound 13, 3-amino-4-chlorophenol]: 0.8 µM and 0.7 µM.
Take `Nc1ccc(O)c(Cl)c1` [compound 14, 14]: the Ki at NgCAα was determined as 71.5 µM; at VchCAα, 81.6 µM.
The matching figures for `Oc1ccc(F)cc1F` [compound 15, 15]: 35.9 µM and 36.6 µM.
On the same counts, the results for `Oc1cc(F)cc(F)c1` [compound 16, 3,5-difluorophenol] are 3.7 µM and 4.9 µM.
`O=C(O)c1ccc(O)c(O)c1` [compound 18, 3,4-dihydroxybenzoic acid]: the Ki at NgCAα was determined as 9.3 µM; at VchCAα, 13.8 µM.
Turning to `O=C(O)c1c(O)cccc1O` [compound 19, 19], the Ki at NgCAα is 33.1 µM; on VchCAα, 49.6 µM.
The matching figures for `O=C(O)c1cc(O)ccc1O` [compound 20, 20]: 16.3 µM and 7.3 µM.
The matching figures for `O=C(O)/C=C/c1ccc(O)cc1` [compound 21, 21]: 10 µM and 40.5 µM.
As for `O=C(O)/C=C/c1ccc(O)c(O)c1` [compound 22, caffeic acid], the Ki at NgCAα stood at 76 µM; on VchCAα, 78.1 µM.
